Assay results from ChEMBL document CHEMBL3352029, “Ring fusion strategy for the synthesis of anthra[2,3-d]oxazole-2-thione-5,10-dione homologues as DNA topoisomerase inhibitors and as antitumor agents” (Eur J Med Chem, 2014).
Activity calls are given as the source filed them. The calls are words filed in the database; no cut-off is given here.

Columns and labels:
[1] = Cytotoxicity against human PC3 cells assessed as inhibition of cell growth after 48 hrs by sulforhodamine B assay; format: functional, cell-based; settings: PC-3, 48 h
[2] = biological target: T1, DNA topoisomerase 1 (Homo sapiens) (UniProt P11387); assay: Inhibition of human recombinant DNA topoisomerase 1 assessed as reduction in relaxation of supercoiled pHOT DNA at 25 to 50 uM incubated for 45 mins by ethidium bromide staining based gel electrophoresis
T1 sequence (whole entry): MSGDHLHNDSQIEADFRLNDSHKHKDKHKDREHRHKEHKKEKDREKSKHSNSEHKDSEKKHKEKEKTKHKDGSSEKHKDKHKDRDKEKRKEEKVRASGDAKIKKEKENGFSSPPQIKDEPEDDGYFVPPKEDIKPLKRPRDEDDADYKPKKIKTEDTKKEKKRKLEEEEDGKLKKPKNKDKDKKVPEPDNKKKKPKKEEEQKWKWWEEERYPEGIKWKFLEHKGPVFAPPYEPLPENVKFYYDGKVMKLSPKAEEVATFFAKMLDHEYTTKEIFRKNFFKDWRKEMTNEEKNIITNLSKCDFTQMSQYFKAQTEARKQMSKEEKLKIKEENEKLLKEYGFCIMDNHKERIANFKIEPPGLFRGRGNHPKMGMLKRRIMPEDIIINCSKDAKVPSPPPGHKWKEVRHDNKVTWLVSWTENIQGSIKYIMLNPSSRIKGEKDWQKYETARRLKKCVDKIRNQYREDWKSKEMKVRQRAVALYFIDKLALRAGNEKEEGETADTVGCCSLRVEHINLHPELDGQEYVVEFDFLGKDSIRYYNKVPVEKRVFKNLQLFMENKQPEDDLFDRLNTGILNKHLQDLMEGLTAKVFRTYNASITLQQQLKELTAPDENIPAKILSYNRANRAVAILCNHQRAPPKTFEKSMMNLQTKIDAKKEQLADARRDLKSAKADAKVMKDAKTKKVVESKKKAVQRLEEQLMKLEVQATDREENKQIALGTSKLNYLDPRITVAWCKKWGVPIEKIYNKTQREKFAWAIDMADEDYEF

U-251 = assay: Cytotoxicity against human U251 cells assessed as cell growth level at 10 uM after 48 hrs by sulforhodamine B assay; format: functional
[3] = Cytotoxicity against human SKOV3 cells assessed as cell growth level at 10 uM after 48 hrs by sulforhodamine B assay; format: functional, SK-OV-3
[4] = Cytotoxicity against human PC3 cells assessed as cell growth level at 10 uM after 48 hrs by sulforhodamine B assay; format: functional, PC-3
[5] = Cytotoxicity against human NCI-ADR-RES cells assessed as cell growth level at 10 uM after 48 hrs by sulforhodamine B assay; format: functional
[6] = Cytotoxicity against human OVCAR8 cells assessed as cell growth level at 10 uM after 48 hrs by sulforhodamine B assay; format: functional, OVCAR-8
SNB-19 = assay: Cytotoxicity against human SNB19 cells assessed as cell growth level at 10 uM after 48 hrs by sulforhodamine B assay; format: functional
CCRF-CEM = assay: Cytotoxicity against human CCRF-CEM cells assessed as cell growth level at 10 uM after 48 hrs by sulforhodamine B assay; format: functional
MDA-MB-435 = assay: Cytotoxicity against human MDA-MB-435 cells assessed as cell growth level at 10 uM after 48 hrs by sulforhodamine B assay; format: functional
A549 = assay: Cytotoxicity against human A549/ATCC cells assessed as cell growth level at 10 uM after 48 hrs by sulforhodamine B assay; format: functional
NCI-H460 = assay: Cytotoxicity against human NCI-H460 cells assessed as cell growth level at 10 uM after 48 hrs by sulforhodamine B assay; format: functional
T47D = assay: Cytotoxicity against human T47D cells assessed as cell growth level at 10 uM after 48 hrs by sulforhodamine B assay; format: functional
SK-MEL-2 = assay: Cytotoxicity against human SK-MEL-2 cells assessed as cell growth level at 10 uM after 48 hrs by sulforhodamine B assay; format: functional
MOLT-4 = assay: Cytotoxicity against human MOLT4 cells assessed as cell growth level at 10 uM after 48 hrs by sulforhodamine B assay; format: functional
RPMI-8226 = assay: Cytotoxicity against human RPMI8226 cells assessed as cell growth level at 10 uM after 48 hrs by sulforhodamine B assay; format: functional
K562 = assay: Cytotoxicity against human K562 cells assessed as cell growth level at 10 uM after 48 hrs by sulforhodamine B assay; format: functional
SW-620 = assay: Cytotoxicity against human SW620 cells assessed as cell growth level at 10 uM after 48 hrs by sulforhodamine B assay; format: functional
A498 = assay: Cytotoxicity against human A498 cells assessed as cell growth level at 10 uM after 48 hrs by sulforhodamine B assay; format: functional
[7] = Cytotoxicity against human UACC257 cells assessed as cell growth level at 10 uM after 48 hrs by sulforhodamine B assay; format: functional, UACC-257
HOP-62 = assay: Cytotoxicity against human HOP62 cells assessed as cell growth level at 10 uM after 48 hrs by sulforhodamine B assay; format: functional
SNB-75 = assay: Cytotoxicity against human SNB75 cells assessed as cell growth level at 10 uM after 48 hrs by sulforhodamine B assay; format: functional
ACHN = assay: Cytotoxicity against human ACHN cells assessed as cell growth level at 10 uM after 48 hrs by sulforhodamine B assay; format: functional
[8] = Cytotoxicity against human Hs 578T cells assessed as cell growth level at 10 uM after 48 hrs by sulforhodamine B assay; format: functional
Malme-3M = assay: Cytotoxicity against human MALME-3M cells assessed as cell growth level at 10 uM after 48 hrs by sulforhodamine B assay; format: functional
DU-145 = assay: Cytotoxicity against human DU145 cells assessed as cell growth level at 10 uM after 48 hrs by sulforhodamine B assay; format: functional
SF-539 = assay: Cytotoxicity against human SF539 cells assessed as cell growth level at 10 uM after 48 hrs by sulforhodamine B assay; format: functional
NCI-H226 = assay: Cytotoxicity against human NCI-H226 cells assessed as cell growth level at 10 uM after 48 hrs by sulforhodamine B assay; format: functional
SN12C = assay: Cytotoxicity against human SN12C cells assessed as cell growth level at 10 uM after 48 hrs by sulforhodamine B assay; format: functional
HL-60(TB) = assay: Cytotoxicity against human HL-60(TB) cells assessed as cell growth level at 10 uM after 48 hrs by sulforhodamine B assay; format: functional
MCF7 = assay: Cytotoxicity against human MCF7 cells assessed as cell growth level at 10 uM after 48 hrs by sulforhodamine B assay; format: functional
HT-29 = assay: Cytotoxicity against human HT-29 cells assessed as cell growth level at 10 uM after 48 hrs by sulforhodamine B assay; format: functional
M14 = assay: Cytotoxicity against human M14 cells assessed as cell growth level at 10 uM after 48 hrs by sulforhodamine B assay; format: functional
MDA-MB-468 = assay: Cytotoxicity against human MDA-MB-468 cells assessed as cell growth level at 10 uM after 48 hrs by sulforhodamine B assay; format: functional
HOP-92 = assay: Cytotoxicity against human HOP92 cells assessed as cell growth level at 10 uM after 48 hrs by sulforhodamine B assay; format: functional
SF-268 = assay: Cytotoxicity against human SF268 cells assessed as cell growth level at 10 uM after 48 hrs by sulforhodamine B assay; format: functional
RXF 393 = assay: Cytotoxicity against human RXF393 cells assessed as cell growth level at 10 uM after 48 hrs by sulforhodamine B assay; format: functional
COLO 205 = assay: Cytotoxicity against human COLO205 cells assessed as cell growth level at 10 uM after 48 hrs by sulforhodamine B assay; format: functional
KM12 = assay: Cytotoxicity against human KM12 cells assessed as cell growth level at 10 uM after 48 hrs by sulforhodamine B assay; format: functional
786-0 = assay: Cytotoxicity against human 786-0 cells assessed as cell growth level at 10 uM after 48 hrs by sulforhodamine B assay; format: functional
MDA-MB-231 = assay: Cytotoxicity against human MDA-MB-231 cells assessed as cell growth level at 10 uM after 48 hrs by sulforhodamine B assay; format: functional
SK-MEL-28 = assay: Cytotoxicity against human SK-MEL-28 cells assessed as cell growth level at 10 uM after 48 hrs by sulforhodamine B assay; format: functional
SK-MEL-5 = assay: Cytotoxicity against human SK-MEL-5 cells assessed as cell growth level at 10 uM after 48 hrs by sulforhodamine B assay; format: functional
HCC 2998 = assay: Cytotoxicity against human HCC2998 cells assessed as cell growth level at 10 uM after 48 hrs by sulforhodamine B assay; format: functional
IGROV-1 = assay: Cytotoxicity against human IGROV1 cells assessed as cell growth level at 10 uM after 48 hrs by sulforhodamine B assay; format: functional
[9] = Cytotoxicity against human HCT116 cells assessed as cell growth level at 10 uM after 48 hrs by sulforhodamine B assay; format: functional, HCT-116
NCI-H23 = assay: Cytotoxicity against human NCI-H23 cells assessed as cell growth level at 10 uM after 48 hrs by sulforhodamine B assay; format: functional
NCI-H522 = assay: Cytotoxicity against human NCI-H522 cells assessed as cell growth level at 10 uM after 48 hrs by sulforhodamine B assay; format: functional
CAKI-1 = assay: Cytotoxicity against human CAKI-1 cells assessed as cell growth level at 10 uM after 48 hrs by sulforhodamine B assay; format: functional
NCI-H322M = assay: Cytotoxicity against human NCI-H322M cells assessed as cell growth level at 10 uM after 48 hrs by sulforhodamine B assay; format: functional
[10] = Cytotoxicity against human HCT15 cells assessed as cell growth level at 10 uM after 48 hrs by sulforhodamine B assay; format: functional, HCT-15
[11] = Cytotoxicity against human UACC62 cells assessed as cell growth level at 10 uM after 48 hrs by sulforhodamine B assay; format: functional, UACC-62
BT-549 = assay: Cytotoxicity against human BT549 cells assessed as cell growth level at 10 uM after 48 hrs by sulforhodamine B assay; format: functional
[12] = Cytotoxicity against human UO31 cells assessed as cell growth level at 10 uM after 48 hrs by sulforhodamine B assay; format: functional, UO-31
LOX IMVI = assay: Cytotoxicity against human LOXIMVI cells assessed as cell growth level at 10 uM after 48 hrs by sulforhodamine B assay; format: functional
[13] = Cytotoxicity against human OVCAR5 cells assessed as cell growth level at 10 uM after 48 hrs by sulforhodamine B assay; format: functional, OVCAR-5
SF-295 = assay: Cytotoxicity against human SF295 cells assessed as cell growth level at 10 uM after 48 hrs by sulforhodamine B assay; format: functional
[14] = Cytotoxicity against human OVCAR3 cells assessed as cell growth level at 10 uM after 48 hrs by sulforhodamine B assay; format: functional, OVCAR-3

## O=C1c2ccccc2C(=O)c2cc3oc(SCc4cccc([N+](=O)[O-])c4)nc3cc21
[1]
  IC50: > 30 µM

## O=C1c2ccccc2C(=O)c2cc3oc(SCc4ccccc4)nc3cc21
[1]
  IC50: > 30 µM

## O=C1c2ccccc2C(=O)c2cc3oc(SCc4ccccc4F)nc3cc21
[1]
  IC50: > 30 µM

## O=C1c2ccccc2C(=O)c2cc3oc(SCCCN4CCCCC4)nc3cc21
[1]
  IC50: 12.2 µM
[2]
  inhibition: Active

## O=C1c2ccccc2C(=O)c2cc3oc(SCc4ccc([N+](=O)[O-])cc4)nc3cc21
[1]
  IC50: > 30 µM

## CCN(CC)CCC(=O)Nc1cc2c(cc1O)C(=O)c1ccccc1C2=O
[1]
  IC50: 23.6 µM

## O=C(CCN1CCCC1)Nc1cc2c(cc1O)C(=O)c1ccccc1C2=O
U-251
  Activity: 95.72%
[3]
  Activity: 104.33%
[4]
  Activity: 91.56%
[5]
  Activity: 103.64%
[6]
  Activity: 100.18%
SNB-19
  Activity: 96.45%
CCRF-CEM
  Activity: 87.09%
MDA-MB-435
  Activity: 103.97%
A549
  Activity: 98.4%
NCI-H460
  Activity: 101.03%
[1]
  IC50: > 30 µM
T47D
  Activity: 74.5%
SK-MEL-2
  Activity: 102.06%
MOLT-4
  Activity: 114.86%
RPMI-8226
  Activity: 86.61%
K562
  Activity: 106.34%
SW-620
  Activity: 106.36%
A498
  Activity: 86.98%
[7]
  Activity: 113%
HOP-62
  Activity: 98.3%
SNB-75
  Activity: 89.48%
ACHN
  Activity: 82.72%
[8]
  Activity: 97.73%
Malme-3M
  Activity: 142.32%
DU-145
  Activity: 105.86%
SF-539
  Activity: 98.8%
NCI-H226
  Activity: 89.38%
SN12C
  Activity: 100.6%
HL-60(TB)
  Activity: 103.96%
MCF7
  Activity: 56.43%
HT-29
  Activity: 67.12%
M14
  Activity: 96.96%
MDA-MB-468
  Activity: 93.65%
HOP-92
  Activity: 83.51%
SF-268
  Activity: 97.79%
RXF 393
  Activity: 103.62%
COLO 205
  Activity: 118.26%
KM12
  Activity: 106.65%
786-0
  Activity: 99.72%
MDA-MB-231
  Activity: 92.22%
SK-MEL-28
  Activity: 104.99%
SK-MEL-5
  Activity: 102.47%
HCC 2998
  Activity: 98.08%
IGROV-1
  Activity: 112.79%
[9]
  Activity: 98.96%
NCI-H23
  Activity: 91.17%
NCI-H522
  Activity: 89.35%
CAKI-1
  Activity: 82.42%
NCI-H322M
  Activity: 108.8%
[10]
  Activity: 97.11%
[11]
  Activity: 94.37%
BT-549
  Activity: 96.56%
[12]
  Activity: 79.74%
LOX IMVI
  Activity: 107.45%
[13]
  Activity: 100.56%
SF-295
  Activity: 93.19%
[14]
  Activity: 108.53%

## O=C(CCCl)Nc1cc2c(cc1O)C(=O)c1ccccc1C2=O
[1]
  IC50: 26.7 µM

## O=C1c2ccccc2C(=O)c2cc3oc(=S)[nH]c3cc21
[1]
  IC50: > 30 µM
[2]
  inhibition: inactive

## O=C1c2ccccc2C(=O)c2cc3oc(SCCc4ccccc4)nc3cc21
[1]
  IC50: > 30 µM

## O=C(CCl)Nc1cc2c(cc1O)C(=O)c1ccccc1C2=O
[1]
  IC50: 23.4 µM

## O=C(CN1CCCC1)Nc1cc2c(cc1O)C(=O)c1ccccc1C2=O
[1]
  IC50: 26 µM
